Key:
[1] = test system: HL60 (Human promyelocytic leukemia cells); assay: MTT cell proliferation assay in HL60 cell line; type: cell-based; settings: HL-60, treated 72 hr or 96 hr
Experimental: (§1) Exemplary assays include MTT cell proliferation assay in A549 (Human lung adenocarcinoma epithelial cell line), and HL60 (Human promyelocytic leukemia cells) cell lines. Suitable cells include those derived through cell culture from patient samples (cancer cell lines) as well as cells derived using routine molecular biology techniques, e.g., retroviral transduction, transfection, mutagenesis, etc.
(§2) In an exemplary MTT assay, approximately 1,000 cells (A549 or HL60) are plated into each well of a 96-well plate. Cells are treated in duplicate with test compounds in a dose titration manner, typically 3-fold dilutions, eleven points per assay, with starting concentrations of 20 or 10 μM) or with DMSO-control (0.2% final concentration). Cells are treated for 72 hours (hr) or 96 hr before being analyzed by the MTT method. After 72 hr or 96 hr of compound treatment, 10 μL of MTT dye solution (5 mg/mL MTT dye [Sigma #M2128] in water) is added to each well and incubated at 37° C. for 2 hr. Following incubation, 100 μL of lysis buffer (10% SDS, 0.01 N HCl in water) is added to each well and incubated overnight at 37° C. The plate is analyzed the following day using a colorimetric plate reader at 595 nm wavelength. Values obtained for treatment samples are normalized to control samples.

[2] = test system: A549 (Human lung adenocarcinoma epithelial cell line); assay: MTT cell proliferation assay in A549 cell line; type: cell-based; settings: A549 cells, treated 72 hr or 96 hr
Experimental: as §1, §2

Row | SMILES | IC50 [1] | IC50 [2]
1 | COC[C@H]1CCCN1c1cnc2c(=O)c(C(=O)O)cn(-c3nccs3)c2n1 | > 10 µM | > 10 µM
2 | CN1CCN(c2ccc3c(=O)c(S(=O)(=O)N4CCCCC4)cn(-c4nccs4)c3n2)CC1 | > 10 µM | < 3 µM
3 | COC[C@@H]1CCCN1c1cnc2c(=O)c(C(=O)O)cn(-c3nccs3)c2n1 | > 10 µM | > 10 µM
4 | O=C(O)c1cn(-c2nccs2)c2nc(N3CCCC3)cnc2c1=O | 3 to 10 µM | 3 to 10 µM
5 | O=c1c(S(=O)(=O)N2CCCCC2)cn(-c2nccs2)c2nc(N3CCN(c4ccc(C(F)(F)F)cc4)CC3)ccc12 | – | < 3 µM
6 | O=C(O)c1cn(-c2nccs2)c2nc(N3CCNCC3)cnc2c1=O | > 10 µM | > 10 µM
7 | CN[C@H]1CN(c2ccc3c(=O)c(S(=O)(=O)N4CCCCC4)cn(-c4nccs4)c3n2)C[C@@H]1OC | < 3 µM | < 3 µM
8 | O=C(O)c1cn(-c2nccs2)c2nc(N3CCOCC3)cnc2c1=O | > 10 µM | > 10 µM
9 | CN(C)[C@@H]1CCN(c2cnc3c(=O)c(C(=O)O)cn(-c4nccs4)c3n2)C1 | > 10 µM | > 10 µM
10 | COC[C@@H]1CCCN1c1ccc2c(=O)c(S(=O)(=O)N3CCCCC3)cn(-c3nccs3)c2n1 | > 10 µM | 3 to 10 µM
11 | O=C(O)c1cn(-c2nccs2)c2nc(N3CCC(O)C3)cnc2c1=O (centres unmarked) | > 10 µM | > 10 µM
12 | O=c1c(S(=O)(=O)N2CCCCC2)cn(-c2nccs2)c2nc(N3CCN(c4cccnc4)CC3)ccc12 | 3 to 10 µM | < 3 µM
13 | CC1CCCN1c1cnc2c(=O)c(C(=O)O)cn(-c3nccs3)c2n1 (centres unmarked) | > 10 µM | 3 to 10 µM
14 | O=c1c(S(=O)(=O)N2CCCCC2)cn(-c2nccs2)c2nc(N3CCC(N4CCCC4)CC3)ccc12 | < 3 µM | < 3 µM
15 | O=c1c(S(=O)(=O)N2CCCCC2)cn(-c2nccs2)c2nc(N3CCNCC3)ccc12 | < 3 µM | < 3 µM
16 | N[C@@H]1CCN(c2cnc3c(=O)c(C(=O)O)cn(-c4nccs4)c3n2)C1 | > 10 µM | > 10 µM
17 | O=c1c(S(=O)(=O)N2CCCCC2)cn(-c2nccs2)c2nc(N3CCOCC3)ccc12 | > 10 µM | 3 to 10 µM
18 | O=C(O)c1cn(-c2nccs2)c2nc(N3CCN(C4CCCCC4)CC3)cnc2c1=O | > 10 µM | > 10 µM
19 | O=C(O)c1cn(-c2nccs2)c2nc(N3CCN(c4ccccn4)CC3)cnc2c1=O | > 10 µM | > 10 µM
20 | CC(C)(C)OC(=O)N1CCN(c2cnc3c(=O)c(C(=O)O)cn(-c4nccs4)c3n2)CC1 | > 10 µM | > 10 µM
21 | COC1CCN(c2cnc3c(=O)c(C(=O)O)cn(-c4nccs4)c3n2)C1 (centres unmarked) | > 10 µM | > 10 µM
22 | CCN(CC)C1CCN(c2ccc3c(=O)c(S(=O)(=O)N4CCCCC4)cn(-c4nccs4)c3n2)C1 (centres unmarked) | < 3 µM | < 3 µM
23 | COC[C@H]1CCCN1c1ccc2c(=O)c(S(=O)(=O)N3CCCCC3)cn(-c3nccs3)c2n1 | > 10 µM | 3 to 10 µM
24 | CCN(CC)C1CCN(c2cnc3c(=O)c(C(=O)O)cn(-c4nccs4)c3n2)C1 (centres unmarked) | > 10 µM | > 10 µM
25 | O=c1c(S(=O)(=O)N2CCCCC2)cn(-c2nccs2)c2nc(N3CCN(C4CCCCC4)CC3)ccc12 | < 3 µM | < 3 µM
26 | O=c1c(S(=O)(=O)N2CCCCC2)cn(-c2nccs2)c2nc(N3CCCC3)ccc12 | > 10 µM | < 3 µM
27 | C[C@@H]1CN(c2cnc3c(=O)c(C(=O)O)cn(-c4nccs4)c3n2)C[C@H](C)N1 | > 10 µM | > 10 µM
28 | CN[C@H]1CN(c2cnc3c(=O)c(C(=O)O)cn(-c4nccs4)c3n2)C[C@@H]1OC | > 10 µM | > 10 µM
29 | CCN1CCN(c2cnc3c(=O)c(C(=O)O)cn(-c4nccs4)c3n2)CC1 | > 10 µM | > 10 µM
30 | CN1CCN(c2cnc3c(=O)c(C(=O)O)cn(-c4nccs4)c3n2)CC1 | > 10 µM | > 10 µM

Results, then the molecule that gave them:

Row | IC50 [1] | IC50 [2] | SMILES
31 | > 10 µM | 3 to 10 µM | C[C@@H]1CN(c2ccc3c(=O)c(S(=O)(=O)N(C)C)cn(-c4nccs4)c3n2)CCN1
32 | 3 to 10 µM | < 3 µM | CN(C)[C@@H]1CCN(c2ccc3c(=O)c(S(=O)(=O)N(C)C)cn(-c4nccs4)c3n2)C1
33 | > 10 µM | < 3 µM | CN(C)S(=O)(=O)c1cn(-c2nccs2)c2nc(N3CCCC3)ccc2c1=O
34 | 3 to 10 µM | 3 to 10 µM | CN(C)S(=O)(=O)c1cn(-c2nccs2)c2nc(N3CCC(N4CCCC4)CC3)ccc2c1=O
35 | < 3 µM | < 3 µM | CN(C)S(=O)(=O)c1cn(-c2nccs2)c2nc(N3CC[C@@H](N)C3)ccc2c1=O
36 | > 10 µM | > 10 µM | COC[C@@H]1CCCN1c1ccc2c(=O)c(S(=O)(=O)N(C)C)cn(-c3nccs3)c2n1
37 | < 3 µM | < 3 µM | N[C@@H]1CCN(c2ccc3c(=O)c(S(=O)(=O)N4CCCCC4)cn(-c4nccs4)c3n2)C1
38 | > 10 µM | < 3 µM | O=c1c(S(=O)(=O)N2CCCCC2)cn(-c2nccs2)c2nc(N3CCC(O)C3)ccc12 (centres unmarked)
39 | < 3 µM | < 3 µM | C[C@@H]1CN(c2ccc3c(=O)c(S(=O)(=O)N4CCCCC4)cn(-c4nccs4)c3n2)C[C@H](C)N1
40 | < 3 µM | < 3 µM | CN(C)[C@@H]1CCN(c2ccc3c(=O)c(S(=O)(=O)N4CCCCC4)cn(-c4nccs4)c3n2)C1
41 | < 3 µM | < 3 µM | C[C@@H]1CN(c2ccc3c(=O)c(S(=O)(=O)N4CCCCC4)cn(-c4nccs4)c3n2)CCN1
42 | 3 to 10 µM | 3 to 10 µM | C[C@@H]1CN(c2ccc3c(=O)c(S(=O)(=O)N(C)C)cn(-c4nccs4)c3n2)C[C@H](C)N1
43 | 3 to 10 µM | 3 to 10 µM | CN(C)S(=O)(=O)c1cn(-c2nccs2)c2nc(N3CCNCC3)ccc2c1=O
44 | 3 to 10 µM | < 3 µM | CN(C)S(=O)(=O)c1cn(-c2nccs2)c2nc(N3CCN(C4CCCCC4)CC3)ccc2c1=O
45 | < 3 µM | < 3 µM | CN[C@H]1CN(c2ccc3c(=O)c(S(=O)(=O)N(C)C)cn(-c4nccs4)c3n2)C[C@@H]1OC
46 | > 10 µM | > 10 µM | CN(C)S(=O)(=O)c1cn(-c2nccs2)c2nc(N3CCN(c4ccccn4)CC3)ccc2c1=O
47 | > 10 µM | > 10 µM | C[C@@H]1CN(c2cnc3c(=O)c(C(=O)O)cn(-c4nccs4)c3n2)CCN1
48 | > 10 µM | > 10 µM | CN(C)S(=O)(=O)c1cn(-c2nccs2)c2nc(N3CCOCC3)ccc2c1=O
